In the NIST ThermoML archive (doi:10.1016/j.fluid.2008.09.004):

Key:
[1] = molar heat capacity at constant pressure; xn = mol fraction of the nth substance listed; settings: 101 kPa, Liquid, Small sample (50 mg) DSC
[2] = excess molar enthalpy (molar enthalpy of mixing); xn = mol fraction of the nth substance listed; settings: 303.15 K, 101 kPa, Liquid, Calvet calorimetry

CCn1cc[n+](C)c1.O=S(=O)([O-])C(F)(F)F [1-ethyl-3-methylimidazolium trifluoromethanesulfonate] + CCO
molar heat capacity at constant pressure [J/K/mol], [1]
Settings | x1 = 0.0523 | x1 = 0.1 | x1 = 0.1959 | x1 = 0.2927 | x1 = 0.3819 | x1 = 0.4917 | x1 = 0.5983 | x1 = 0.6899 | x1 = 0.7829 | x1 = 0.8784
293.15 K | 125.1 | 138.9 | 164.1 | 188.3 | 209.7 | 236 | 261.7 | 283.9 | 306.8 | 330.5
298.15 K | 126.8 | 140.4 | 165.4 | 189.5 | 211 | 237.4 | 263.3 | 285.4 | 308.5 | 332.5
303.15 K | 128.4 | 142 | 166.7 | 190.7 | 212.3 | 238.8 | 264.9 | 286.9 | 310.3 | 334.5
308.15 K | 130.3 | 143.8 | 168.1 | 192.1 | 213.8 | 240.4 | 266.5 | 288.5 | 312.2 | 336.6
313.15 K | 132.2 | 145.5 | 169.5 | 193.5 | 215.2 | 241.9 | 268.2 | 290.1 | 314.1 | 338.7
318.15 K | 134.2 | 147.4 | 171.1 | 195 | 216.9 | 243.6 | 270 | 291.9 | 316.1 | 340.9

[2]
Settings | excess molar enthalpy [kcal/mol]
x1 = 0.1271 | 0.291
x1 = 0.2489 | 0.411
x1 = 0.3752 | 0.449
